In publication PMC6277434, “Discovery of a potent HMG-CoA reductase degrader that eliminates statin-induced reductase accumulation and lowers cholesterol” (Nature Communications, 2018):

What was measured:
K89R/K248R HMGCR = target: T1, K89R/K248R HMGCR (Cricetulus griseus, UniProt P00347, K248R/K89R); experiment: Degradation of transfected K89R/K248R HMGCR in CHO-7 cells; type: cell-based; parameters: expressed in transfected cells; host or cells: CHO-7 (A20); conditions: transfected CHO-7 cells, 5 h
T1 sequence (P00347 1-887 K89R/K248R): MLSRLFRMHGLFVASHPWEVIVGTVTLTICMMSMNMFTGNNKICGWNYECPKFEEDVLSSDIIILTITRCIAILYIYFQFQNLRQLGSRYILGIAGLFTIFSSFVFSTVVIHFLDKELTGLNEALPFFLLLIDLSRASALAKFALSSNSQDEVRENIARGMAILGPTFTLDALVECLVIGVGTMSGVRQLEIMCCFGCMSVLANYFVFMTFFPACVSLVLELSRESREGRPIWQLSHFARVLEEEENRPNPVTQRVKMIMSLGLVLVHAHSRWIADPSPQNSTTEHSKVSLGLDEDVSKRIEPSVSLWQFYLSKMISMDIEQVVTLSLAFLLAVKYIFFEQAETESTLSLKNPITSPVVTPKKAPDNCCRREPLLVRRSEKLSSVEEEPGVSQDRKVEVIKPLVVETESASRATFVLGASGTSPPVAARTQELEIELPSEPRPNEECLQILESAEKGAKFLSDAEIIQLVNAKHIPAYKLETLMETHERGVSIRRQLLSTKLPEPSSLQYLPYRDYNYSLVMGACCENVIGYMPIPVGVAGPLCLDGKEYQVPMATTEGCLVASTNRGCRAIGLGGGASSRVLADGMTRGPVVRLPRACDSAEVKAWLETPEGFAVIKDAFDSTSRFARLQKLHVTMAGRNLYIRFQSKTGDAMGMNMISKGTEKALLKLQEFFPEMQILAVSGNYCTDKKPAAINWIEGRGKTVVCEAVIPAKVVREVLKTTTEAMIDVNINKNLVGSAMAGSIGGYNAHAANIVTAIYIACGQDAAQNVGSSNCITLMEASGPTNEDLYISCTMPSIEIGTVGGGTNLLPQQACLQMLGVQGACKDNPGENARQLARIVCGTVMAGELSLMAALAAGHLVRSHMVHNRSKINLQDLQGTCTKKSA
Experimental: HMGCR protein of DMSO-treated cells was defined as 100. […] Lysates were immunoprecipitated and pellets were probed for anti-ubiquitin (P4D1) and anti-HMGCR (A9). e CHO-7 cells were transfected with indicated plasmids and treated as in d. Lysates were immunoprecipitated with anti-Flag M2 beads, and pellets were probed for anti-ubiquitin (HA) and anti-HMGCR (Flag). f CHO-7 cells were transfected with indicated plasmids, then treated with Cmpd 81 for 5 h. […] Data are from three independent experiments and presented as mean ± SD. Source data are provided as a Source Data File.
Cells were harvested and homogenized in the RIPA buffer (50 mM Tris-HCl, pH 8.0, 150 mM NaCl, 2 mM MgCl2, 1.5% NP-40, 0.1% SDS, and 0.5% sodium deoxycholate) supplemented with protease cocktail inhibitor, 10 μM MG-132, 10 μg ml^−1 leupeptin and 1 mM phenylmethylsulfonyl fluoride. The protein concentrations of lysates were determined using BCA method (Beyotime). […] Western blot images were captured by Amersham Imager 600 (GE Healthcare), and integrated optical intensities of each band were quantified by Image-Pro Plus 6 software (Media Cybernetics). […]

hERG potassium channel = hERG potassium channel (Homo sapiens, UniProt Q12809); experiment: hERG electrophysiology patch-clamp assay (CHO-hERG cells, QPatch); conditions: even at 40 μM
Hmgcr mRNA = experiment: RT-qPCR of Hmgcr mRNA in CHO-7 cells; type: cell-based, Chinese hamster; conditions: DMSO = 1; for HMGCR mRNA level, mean: 16 h
Experimental: Cells were treated as described in corresponding figure legends, then total RNA was extracted from cells or mouse livers using TRI Reagent (T9424, Sigma-Aldrich). Equal amounts of RNA from cells or mice receiving the same treatment were pooled were used for cDNA synthesis with oligo dT and reverse transcriptase MLV (Promega). Gene expression was analyzed by quantitative real-time PCR on a Stratagene Mx30005PTM Q-PCR Systems. The primers used were listed in Supplementary Tables 2–4.

Chain of hERG potassium channel (Q12809 whole entry): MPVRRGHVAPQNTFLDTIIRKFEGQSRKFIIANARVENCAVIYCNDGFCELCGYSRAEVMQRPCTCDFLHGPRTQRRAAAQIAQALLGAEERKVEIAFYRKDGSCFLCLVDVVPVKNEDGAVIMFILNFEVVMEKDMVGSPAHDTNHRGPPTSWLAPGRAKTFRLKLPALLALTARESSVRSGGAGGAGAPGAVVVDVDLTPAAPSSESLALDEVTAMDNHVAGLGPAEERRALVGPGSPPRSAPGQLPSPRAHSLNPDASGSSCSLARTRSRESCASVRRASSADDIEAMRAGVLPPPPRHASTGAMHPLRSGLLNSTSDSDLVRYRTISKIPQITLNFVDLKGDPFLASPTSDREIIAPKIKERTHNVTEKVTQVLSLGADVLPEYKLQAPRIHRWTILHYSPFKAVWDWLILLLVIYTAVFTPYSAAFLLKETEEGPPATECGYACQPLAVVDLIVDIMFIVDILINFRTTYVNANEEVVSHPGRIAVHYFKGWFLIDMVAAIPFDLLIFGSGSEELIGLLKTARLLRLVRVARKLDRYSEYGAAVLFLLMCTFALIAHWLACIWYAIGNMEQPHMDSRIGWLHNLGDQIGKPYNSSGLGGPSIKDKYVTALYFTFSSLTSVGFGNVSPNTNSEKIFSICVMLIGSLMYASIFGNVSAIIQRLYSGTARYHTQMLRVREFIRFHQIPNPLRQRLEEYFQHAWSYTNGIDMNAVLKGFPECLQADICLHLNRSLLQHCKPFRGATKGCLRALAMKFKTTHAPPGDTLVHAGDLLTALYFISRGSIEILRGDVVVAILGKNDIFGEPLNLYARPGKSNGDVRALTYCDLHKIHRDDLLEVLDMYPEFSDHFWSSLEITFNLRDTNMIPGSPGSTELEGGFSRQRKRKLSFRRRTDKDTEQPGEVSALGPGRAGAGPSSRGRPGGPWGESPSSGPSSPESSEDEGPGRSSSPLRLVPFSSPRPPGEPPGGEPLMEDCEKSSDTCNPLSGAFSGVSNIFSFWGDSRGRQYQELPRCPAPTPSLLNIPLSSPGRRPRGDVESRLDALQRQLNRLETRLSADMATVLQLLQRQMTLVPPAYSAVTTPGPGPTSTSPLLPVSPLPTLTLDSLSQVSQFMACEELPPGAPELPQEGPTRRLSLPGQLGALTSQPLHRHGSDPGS

| Compound | degradation of K89R/K248R HMGCR (K89R/K248R HMGCR) | inhibition of hERG peak tail currents (hERG potassium channel) | HMGCR mRNA level, mean (Hmgcr mRNA; CHO-7, lovastatin 0.001 uM) | HMGCR mRNA level, mean (Hmgcr mRNA; CHO-7, lovastatin 0.003 uM) | HMGCR mRNA level, mean (Hmgcr mRNA; CHO-7, lovastatin 0.01 uM) | HMGCR mRNA level, mean (Hmgcr mRNA; CHO-7, lovastatin 0.03 uM) | HMGCR mRNA level, mean (Hmgcr mRNA; CHO-7, lovastatin 0.1 uM) | HMGCR mRNA level, mean (Hmgcr mRNA; CHO-7, lovastatin 0.3 uM) | HMGCR mRNA level, mean (Hmgcr mRNA; CHO-7, lovastatin 1 uM) | HMGCR mRNA level, mean (Hmgcr mRNA; CHO-7, lovastatin 3 uM) | HMGCR mRNA level, mean (Hmgcr mRNA; CHO-7, lovastatin 10 uM) | increase of Hmgcr mRNA abundance (Hmgcr mRNA; CHO-7 cells, statin 16 h (lovastatin up to 10 μM)) |
| --- | --- | --- | --- | --- | --- | --- | --- | --- | --- | --- | --- | --- |
| C=CCC(O)(CC=C)CCCC(C)C1CCC2C3C(O)C=C4C(C)(C)C(O)CCC4(C)C3CCC12C (stereo not drawn) [Cmpd 81] | blunted the effect | no inhibition effect | – | – | – | – | – | – | – | – | – | – |
| CC[C@H](C)C(=O)O[C@H]1C[C@@H](C)C=C2C=C[C@H](C)[C@H](CC[C@@H]3C[C@@H](O)CC(=O)O3)[C@H]21 [Lovastatin, lovastatin] | – | – | 1.196 | 1.51 | 1.897 | 2.523 | 2.959 | 3.447 | 3.688 | 3.602 | 3.663 | 3.6 fold |
